Patent US20240334941A1, “HIGH-EFFICACY NATURAL PRESERVATIVES” (BioVeritas, LLC, priority 2023, published 2024)

Legend:
mold [1] = assay: Comparative shelf-life study using pup loaves (white bread), days until visible mold
Protocol: Example 2. A comparative shelf-life study was performed using pup loaves by an ISO/IEC 17025:2017 certified laboratory, Great Plains Analytical Laboratory, Kansas City, MO, USA. A standard white bread dough formulation was prepared (pup loaves) for each test group. Approximately 500 grams of dry material was used to prepare 3 pup loaves per test group. Various preservatives, which were to act as mold inhibitors, were added to the doughs. The amount of preservatives added to each dough is reported as a weight percentage based on the mass of flour in the dough (“on flour”). Each mold inhibitor was thoroughly mixed into the formulation for each dough. The percentage inclusion and type of mold inhibitor on flour is outlined in Table 2. Three of the mold inhibitors were made with acetic and propionic acid produced from fermentation using a mixed consortium of naturally occurring microorganisms or microbiome using the methods previously described herein. […] The second and third comparative mold inhibitors were high-efficacy clean-label acetate/propionate mold inhibitors, with one having an acetate/propionate weight ratio of 1:1 (50 wt. % acetate/50 wt. % propionate) (BV1) and the other one having an acetate/propionate weight ratio of 1:6 (14 wt. % acetate/86 wt. % propionate) (BV2). […] The internal temperature of each loaf was recorded upon exiting the oven and prior to packaging (Table 3). In addition, water activity and pH were measured in one of the replicates for each group prior to baking using a water activity meter and a pH meter (Table 4). The product odor (similar to baseline or off odor development), color, and general appearance were evaluated daily. […]
Three sample loaves were produced using each of the inhibitor treatments, and the number of days until mold was observed was recorded for each loaf. […] No off-odors were detected over time in any of the treatments.

[2] = Water activity and pH of bread dough prior to baking; format: physicochemical
Protocol: Example 2. A comparative shelf-life study was performed using pup loaves by an ISO/IEC 17025:2017 certified laboratory, Great Plains Analytical Laboratory, Kansas City, MO, USA. A standard white bread dough formulation was prepared (pup loaves) for each test group. Approximately 500 grams of dry material was used to prepare 3 pup loaves per test group. Various preservatives, which were to act as mold inhibitors, were added to the doughs. The amount of preservatives added to each dough is reported as a weight percentage based on the mass of flour in the dough (“on flour”). Each mold inhibitor was thoroughly mixed into the formulation for each dough. The percentage inclusion and type of mold inhibitor on flour is outlined in Table 2. Three of the mold inhibitors were made with acetic and propionic acid produced from fermentation using a mixed consortium of naturally occurring microorganisms or microbiome using the methods previously described herein. […] The second and third comparative mold inhibitors were high-efficacy clean-label acetate/propionate mold inhibitors, with one having an acetate/propionate weight ratio of 1:1 (50 wt. % acetate/50 wt. % propionate) (BV1) and the other one having an acetate/propionate weight ratio of 1:6 (14 wt. % acetate/86 wt. % propionate) (BV2). […] After mixing, the dough was divided into disposable bread pans and allowed to ferment for 3 hours at 86±1° F. and 60% relative humidity, proofed for 55 minutes at 109±1° F. and 90% humidity, and baked for 15 minutes at 425±1° F. This procedure was repeated for each test group for a total of 30 loaves of bread. The internal temperature of each loaf was recorded upon exiting the oven and prior to packaging (Table 3). In addition, water activity and pH were measured in one of the replicates for each group prior to baking using a water activity meter and a pH meter (Table 4). The product odor (similar to baseline or off odor development), color, and general appearance were evaluated daily. Each sample was opened and closed daily until visible mold appeared.

[3] = Water activity and pH of tortilla dough prior to baking; format: physicochemical
Protocol: After mixing the tortilla formulation ingredients with the corresponding mold inhibitor, samples of rounded dough were placed onto parchment paper and allowed to ferment for 20 minutes at 82±2° F. and 85% relative humidity. The dough was then pressed into a tortilla form, cooked, cooled, and packaged. This procedure was repeated for each test group. One replicate of dough for each group was tested prior to baking. Water activity was measured using a water activity meter. Measurements for pH were made using a pH meter. The product odor (similar to baseline or off odor development), color, and general appearance were evaluated daily. Each sample was opened and closed daily, until visible mold appeared.

mold [4] = assay: Shelf-life study using pup loaves (Example 6), day of visible mold; conditions: ambient temperature
Protocol: Example 6. In another example, a comparative shelf-life and sensory study using pup loaves was performed by an ISO/IEC 17025:2017 certified laboratory, Great Plains Analytical Laboratory, Kansas City, MO. A total of seven test groups of white bread in a pup loaf formulation were prepared. […] Test groups were stored at ambient temperature for between 7 and 15 days to determine the overall efficacy of the inhibitors and compare the performance of the inhibitors in the bread formulation. Sensory analysis was performed examining the flavor and crumb texture for all samples. The studies were conducted concurrently.
A standard white bread dough formulation was prepared for each test group. Three pup loaves were prepared for each test group for the visual examination portion of the study. […] The bread was baked for 15 minutes at 425±1° F. Internal temperatures were recorded upon exiting the oven and prior to packaging. […]
Chemical testing included the evaluation of pH on the dough out of the mixer (Table 15). […] A bake score, height, and volume were recorded for each test group. […] The pup loaves were evaluated for visible mold every day for the shelf-life portion of the study. A photograph of the visible mold was taken the day it was detected. The sensory analysis consisted of a quantitative descriptive analysis and a ranking performed by a trained panel. […]

[5] = Dough pH out of the mixer (Example 6); format: physicochemical
Protocol: Chemical testing included the evaluation of pH on the dough out of the mixer (Table 15). Measurement for pH was made using a pH meter. A bake score, height, and volume were recorded for each test group. The bake score examined the crust color, loaf symmetry, uniformity of the break and shred, crumb texture, crumb grain, crumb color, taste, and aroma. The pup loaves were evaluated for visible mold every day for the shelf-life portion of the study. A photograph of the visible mold was taken the day it was detected. The sensory analysis consisted of a quantitative descriptive analysis and a ranking performed by a trained panel. […] The descriptive analysis covered the crumb texture and flavor of the test groups. The sensory analysis was performed on Days 3, 6, 9, 12, and 15. No sensory analysis was performed on bread that had visible mold.
The temperature of the loaves out of the oven and prior to packaging were recorded in Table 14. Dough was removed from the mixing bowl and then analyzed for pH.

mold [6] = assay: Comparative shelf-life study using flour tortillas, days until visible mold
Protocol: Example 3. A comparative shelf-life study using flour tortillas was performed by an ISO/IEC 17025:2017 certified laboratory, Great Plains Analytical Laboratory, Kansas City, MO. The purpose of this study was to compare the efficacy of preservatives, which were to act as mold inhibitors, in a tortilla formulation. A total of 10 test groups of tortillas were prepared: 9 test groups contained various mold inhibitors and one test group served as control, without a mold inhibitor (no additive). Test groups were stored at ambient temperature for 30 days to determine the overall efficacy of the inhibitors and compare the performance of the inhibitors in the tortilla formulation. […]
After mixing the tortilla formulation ingredients with the corresponding mold inhibitor, samples of rounded dough were placed onto parchment paper and allowed to ferment for 20 minutes at 82±2° F. and 85% relative humidity. […] Water activity was measured using a water activity meter. […] The product odor (similar to baseline or off odor development), color, and general appearance were evaluated daily. […]
The results for the tortilla shelf-life study comparing the preservative/mold inhibitors treatments are graphically shown in FIG. 2. Three tortilla samples were produced using each of the inhibitor treatments, and the number of days until mold was observed was recorded for each sample. […]

[7] = 0.3 wt. % on flour (order of Table 2)
[8] = 1 wt. % on flour (order of Table 2)

Structure (SMILES)	mold inhibitor performance (mold [1]; 0.3 wt. % on flour)	Water Activity [2, 7]	pH [2, 7]	Water Activity [3, 7]	pH [3, 7]	Day of Visible Mold (mold [4]; 0.5 wt. %) [days]	Day of Visible Mold (mold [4]; 0.8 wt. %) [days]	Dough pH ([5]; 0.5 wt. % mold inhibitor)	Dough pH ([5]; 0.8 wt. % mold inhibitor)	mold after day 30 up to day 45 (mold [1]; 1 wt. % on flour, bags no longer opened each day)	day visible mold developed (replicate loaves) (mold [1]; 1 wt. % on flour, stored 70-73 F, opened daily, 30-day study) [days]	days on which visible mold developed (replicates) (mold [6]; 1 wt. % on flour, 68-73 F, opened daily) [days]	mold after day 30 up to day 45 (mold [6]; 1 wt. %, remaining replicate, bags no longer opened) [days]	Water Activity [2, 8]	pH [2, 8]	Water Activity [3, 8]	pH [3, 8]
CCC(=O)[O-].CCC(=O)[O-].[Ca+2] [CCP, calcium propionate, reference compound]	performed similar to the natural calcium propionate (BV CP)	0.9564	5.40	0.9502	6.7	7	9	5.34	5.53	–	–	–	–	–	–	–	–
CCC(=O)[O-].CCC(=O)[O-].[Ca+2] [BV CP, calcium propionate]	–	0.9535	5.65	0.9548	6.98	–	–	–	–	no signs of mold growth or off odor at day 45	> 30	30	> 45	0.9448	5.73	0.9612	6.87
